{"source": "patent US20240285631A1", "about": "“METHODS OF TREATING VASCULAR MALFORMATIONS” (priority 2023, published 2024)", "key": {"[1]": {"test_system": "HUVECs", "assay": "Agilent Seahorse mitochondrial stress test in HUVECs", "format": "cell-based, human", "design": "dose or concentration left out as unconfirmed", "conditions": "HUVECs pretreated with Palbociclib, vs control cells", "excerpt": "FIG. 4C illustrates representative traces of oxygen consumption rate (OCR) measured by Seahorse assay of control vs. CDK4/6i-treated HUVECs in response to oligomycin (ATP synthase inhibitor), BAM15 (mitochondrial uncoupler) and Antimycin A/Rotenone (mitochondrial respiratory chain complex III and I inhibitors) (N=6 independent experiments, Data are mean±SEM **p≤0.01, ns p>0.05). Two-way ANOVA for independent measures with Bonferonni's correction for statistical analysis. p<0.05 was considered statistically significant. The normality and homogeneity of variances assumptions were tested using Shapiro-Wilk test (p>0.05) and Mauchly's test of sphericity respectively. Quantification of mitochondrial activity expressed as basal OCR (FIG. 4D) and respiratory capacity (FIG. 4E) in control vs. CDK4/6i-treated HUVECs. […]\nHUVECs (70% confluent) were treated with Palbociclib (3 mg/ml) for 12 h in EGM™2-Bulletkit™ medium (CC-3156 & CC-4176, Lonza) prior to seeding onto a Seahorse 24-well tissue culture plate (Agilent Technologies) in EMB-2 media (CC-3162 Lonza) supplemented with 0.1% FBS and Palbociclib (3 mg/ml). […] Oxygen consumption rate (OCR) was measured using a Seahorse XF24 Flux Analyzer (Agilent Technologies). […] Basal respiration was calculated by subtracting the average of the first three measurements by the average of the post-Antimycin A & Rotenone measurements. […]"}, "[2]": {"test_system": "vascular malformations in Alk1EC^iKO pups", "assay": "Blue latex dye vascular perfusion of brain, lungs and intestinal tract in Alk1EC^iKO pups", "format": "in vivo, mouse", "text": "(§1) FIG. 5A illustrates a timeline used for tamoxifen (Tx) injection and CDK4/6i treatment of Alk1EC^iKO pups. FIG. 5B illustrates representative images showing retinal vasculature labelled with IB4 from control, Alk1EC^iKO, and Alk1EC^iKO+CDK4/6i-treated P5 animals. Bar graphs showing (FIG. 5C) quantification of AV shunt number per retina, (FIG. 5D) vascular density, and (FIG. 5E) vascular progression. (N=8 to 10 retinas/group, at least 4 mice). Data are mean±SEM, One-way ANOVA, *p≤0.05, **p≤0.01). FIG. 5F illustrates a timeline used for Tx injection and CDK4/6i treatment of Alk1EC^iKO pups for blue latex dye perfusion experiments. FIG. 5G illustrates blue latex dye vascular perfusion in brains from control, Alk1EC^iKO, and Alk1EC^iKO+CDK4/6i-treated P7 animals. […] FIG. 5H illustrates the quantification of left middle cerebral artery (MCA) and basilar artery (BA) in control, Alk1EC^iKO, and Alk1EC^iKO+CDK4/6i-treated animals. FIG. 5I illustrates the quantification of the number of latex filled veins in control, Alk1EC^iKO, and Alk1EC^iKO+CDK4/6i-treated animals. (N=4 to 6 mice/group. Data are mean±SEM, one-way ANOVA with Holm-Šidàk's multiple comparison test, *p≤0.05, **p≤0.01, ***p<0.001). Scale bar (G): 4 mm.\n(§2) About 50% of HHT patients harbor mutations in the Acvrl1 gene^1, which encodes for the ALK1 receptor. To validate the clinical relevance of the use of Palbociclib for the treatment of HHT, we crossed Cdh5Cre^ERT2 mice with Alk1^flox/flox mice (6-8-week-old) to generate an endothelial-specific inducible deletion of Alk1 (referred to as Alk1EC^iKO), which is an established preclinical mouse model of human HHT type 2^12,25. Neonatal Alk1EC^iKO pups received a single i.p. injection of tamoxifen at P3 to induce Alk1 gene deletion and were then treated with Palbociclib via oral gavage at P4, and their retinal vasculature was analyzed at P5 (FIG. 5A). […] Due to the relatively short survival time post-tamoxifen induction in Alk1EC^iKO mice (approximately 48 hours), our study is limited to a single Palbociclib injection, which represents a technical challenge in exploring additional treatments. […] Single Cell RNA sequencing analysis of Palbociclib effects on endothelial arteriovenous identity in Alk1EC^iKO mice."}, "[3]": {"test_system": "vascular malformations in Alk1EC^iKO pups", "assay": "Retinal vasculature analysis in Alk1EC^iKO pups (HHT type 2 model)", "format": "in vivo, mouse", "text": "as §1, §2\nWith bulk RNAseq analysis, we further investigated the effects of Palbociclib on these pathways in vivo on P7 retinal ECs from control pups or those treated with anti-BMP9/10, with or without CDK4/6i, as outlined in FIG. 2A. […] We also investigated the potential role of FLT1, a decoy receptor for VEFG-A, in the mechanism of action of Palbociclib, by injecting i.p. FLT1 blocking antibodies in Alk1EC^iKO mice simultaneously with CDK4/6i treatment (FIG. 8G).\nAll animal protocols and procedures were approved by the University of Virginia Animal Care and Use Committee and complied with all ethical regulations. Cdh5Cre^ERT21Rha^43 and Alk1^flox/flox were gifted from Drs. Ralf Adams and Paul Oh, respectively. R26p-Fucci2 (Fucci2) (Accession #CDB0203T)^44 and C57bl/6 mice were purchased from Riken and Jax, respectively. Cdh5Cre^ERT2 mice were crossed with Alk1^flox/flox mice (6-8-week-old) to generate Alk1EC^iKO pups. Cre activity in Alk1EC^iKO was induced in pups at P3 via a single intraperitoneal (i.p.) injection of Tamoxifen (Tx; Sigma T5648, […] of 4 mg/ml, resuspended in 10% ethanol and 90% corn oil). Alk1^flox/flox littermates were used as controls. Alk1EC^iKO mice were crossed with Fucci2 mice to generate Alk1EC^iKO-Fucci2 pups."}, "[4]": {"test_system": "human umbilical vein endothelial cells", "assay": "Proliferation of human umbilical vein endothelial cells assessed by EdU uptake", "format": "cell-based", "conditions": "in vitro, dose response", "text": "FIG. 16 illustrates palbociclib, CVT-313 and ribociclib dose response effects on proliferation of human umbilical vein endothelial cells assessed by EdU uptake.\nThis example discusses that endothelial cell cycle dysregulation is a mechanism involved in the development of arterio-venous malformations in HHT, as well as other types of vascular malformations named above. Palbociclib, a FDA-approved cell cycle inhibitor, could be used to prevent arterio-venous and other malformations, including venous, capillary, lymphatic and cerebral cavernous malformations."}, "[5]": {"test_system": "brain vascular anomalies in adult Alk1 mutant animals", "assay": "Brain vasculature of adult Alk1 mutant animals (HHT model)", "format": "in vivo, mouse", "conditions": "3 doses 120 mg/kg oral gavage at day 7, 9 and 11 after tamoxifen, 3 weeks after induction", "text": "Euthanized animals have been perfused with colored reagent to visualize the blood vessels."}, "[6]": {"test_system": "vascular anomalies in lungs and intestinal tracts of anti-BMP9/10-treated pups", "assay": "Blue latex dye vascular perfusion of lungs and duodenum in BMP9/10 Abs-treated pups", "format": "in vivo, mouse", "conditions": "P7, BMP9/10 Abs + CDK4/6i", "excerpt": "Vascular perfusion assessed using blue latex dye in lungs (FIGS. 10C-D), duodenum (FIGS. 10E-F) and brain (FIGS. 10G-H) from control, BMP9/10 Abs-treated, BMP9/10 Abs- and CDK4/6i-treated P7 animals. Lung samples have been clarified. Quantifications of intrapulmonary artery diameter (FIG. 10D) and intestinal capillary diameter (FIG. 10F). Red arrows indicate intestinal capillaries (N=3 to 7 animals/group. Data are mean±SEM, one-way ANOVA with Holm-Šidàk's multiple comparison test, **p≤0.01, *p≤0.05, ns p>0.05). […] We then analyzed the effects of BMP9/10 antibodies and CDK4/6i treatment on lungs, brains, and intestinal tracts, which are commonly affected by vascular malformations in HHT patients. To visualize vascular anomalies in these tissues, we performed intracardiac injections of blue latex silicon dye in P7 control, and anti-BMP9/10-treated pups, with or without CDK4/6i treatment following the dosing protocol as shown in FIG. 2A. […] P7 pups were deeply anesthetized with isoflurane using a nose cone and a thoracotomy was performed to expose the heart. For brain and gastrointestinal vasculature perfusions, the right atrium was cut and an insulin syringe (27 G) pre-filled with 1 ml of blue latex (VWR 470024-612) was inserted in the apex of the left ventricle to perfuse approximately 600 ml of latex. […]"}, "[7]": {"conditions": "tamoxifen P3, Palbociclib P4, P5"}}, "note": "Entries after “also recorded” stand apart in the source; their conditions may differ.", "data": [{"smiles": "CC(=O)c1c(C)c2cnc(Nc3ccc(N4CCNCC4)cn3)nc2n(C2CCCC2)c1=O", "note": "[Palbociclib, 6-acetyl-8-cyclopentyl-5-methyl-2-[5-(1-piperazinyl)pyridine-2-ylamino]pyrido[2,3-d]pyrimidin-7(8H)-one]", "values": [{"measurement": "mitochondrial basal respiration (basal OCR)", "setting": "[1]", "result": "significantly lower"}, {"measurement": "respiratory capacity (OCR)", "setting": "[1]", "result": "significantly lower"}, {"measurement": "veins filled with blue latex (arteriovenous shunts) in the intestinal tract", "setting": "[2]; P7, gastrointestinal tract", "result": "absent"}, {"measurement": "diameter of the basilar and middle cerebral arteries", "setting": "[2]; brain, single dose of Palbociclib at P4", "result": "trend toward normalization"}, {"measurement": "number of latex-filled veins in brain", "setting": "[2]; brain, vs untreated Alk1EC^iKO", "result": "significantly reduced"}, {"measurement": "latex blue dye extravasation across the intrapulmonary bed", "setting": "[2]; lungs", "result": "dye extravasation was reduced"}, {"measurement": "AV shunt number per retina (FLT1 experiment)", "setting": "[3]; Alk1^iECKO mice, Palbociclib alone, vs untreated", "result": "developed less AV shunts"}, {"measurement": "AV shunt number per retina with FLT1 blocking antibodies", "setting": "[3]; Alk1^iECKO mice, Palbociclib plus i.p. FLT1 blocking antibodies (1.6 mg/kg)", "result": "numerous AV shunts, comparable to untreated"}, {"measurement": "vascular density at the front of the retinal vascular plexi", "setting": "[3]; [7]", "result": "prevented the formation of hyperdense and disorganized vascular networks"}, {"measurement": "vascular progression", "setting": "[3]; [7]", "result": "normalized vascular progression"}, {"measurement": "number of AVMs (AV shunts) per retina", "setting": "[3]; tamoxifen P3, Palbociclib oral gavage P4, retina at P5, vs untreated Alk1EC^iKO", "result": "significantly lower number of AVMs; also recorded: prevented the development of arterio-venous malformations"}, {"measurement": "EC proliferation assessed by EdU uptake", "setting": "[4]", "result": "inhibit EC proliferation"}, {"measurement": "brain vascular anomalies in adult Alk1 mutant animals", "setting": "[5]", "result": "regressed anomalies observed in the brain vasculature; also recorded: regressed brain vascular anomalies"}, {"measurement": "vasodilation of small capillaries perfusing the duodenum", "setting": "[6]; duodenum", "result": "not prevented by CDK4/6i treatment"}, {"measurement": "lung vascular anomalies and intrapulmonary artery diameter", "setting": "[6]; lungs", "result": "significantly less vascular anomalies and intrapulmonary microvasculature vasodilation"}]}]}
